Tests used:
human TGR5 receptor = biological target: T1, human TGR5 receptor (Homo sapiens, UniProt Q8TDU6); test: Human TGR5 cAMP production assay (hTGR5-CHO cells, DiscoveRx cAMP XS+ kit); format: cell-based; details: luminescent cAMP assay, read-out: Human TGR5 Lum. cAMP Activity (EC50)
T1 construct: host or cells: CHO-K1 (hTGR5-CHO)
T1 sequence (Q8TDU6 1-330): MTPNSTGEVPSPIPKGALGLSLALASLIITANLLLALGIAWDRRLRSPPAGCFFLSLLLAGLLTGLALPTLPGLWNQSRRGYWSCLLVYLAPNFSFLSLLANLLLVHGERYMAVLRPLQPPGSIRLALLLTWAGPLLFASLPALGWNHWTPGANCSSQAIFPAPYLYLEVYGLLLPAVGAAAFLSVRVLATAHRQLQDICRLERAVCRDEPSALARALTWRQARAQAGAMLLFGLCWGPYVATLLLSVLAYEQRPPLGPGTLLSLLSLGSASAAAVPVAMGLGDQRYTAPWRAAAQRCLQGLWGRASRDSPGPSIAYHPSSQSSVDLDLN
Method in brief: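 CHO-K1 cells stably expressing hTGR5, in PBS with IBMX and cAMP antibody, treated with half-log compound dilutions for 1 h at room temperature. cAMP measured by enzyme-fragment complementation luminescence after overnight detection; EC50 values reported.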

Mouse STC-1 cells = test: STC-1 GLP-1 assay (GLP-1 secretion); format: cell-based; details: Mouse STC-1 cells, GLP-1 secretion, 2 h; read-out: Mouse STC-1 HTRF GLP-1 Activity (EC50)
Method in brief: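 Mouse STC-1 cells were plated two days ahead in DMEM with 10% charcoal-dextran stripped FBS, then exposed to compound in HBSS with protease inhibitors, DPP-IV inhibitor and 0.1% fatty acid free BSA for 2 h at 37° C. Active GLP-1 in supernatant was quantified by HTRF; EC50 derived from 12-point half-log curves.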

SMILES	EC50 (human TGR5 receptor) [µM]	EC50 (Mouse STC-1 cells) [µM]
N#Cc1ccc(CCNC(=O)[C@@H]2CCCN2c2cc(N3CCC(COCC(=O)O)CC3)nc(C(F)(F)F)n2)cc1 [Compound 88, (S)-2-((1-(6-(2-((4-cyanophenethyl)carbamoyl)pyrrolidin-1-yl)-2-(trifluoromethyl)pyrimidin-4-yl)piperidin-4-yl)methoxy)acetic acid]	0.1 to 0.999	0.1 to 0.999
O=C(NCCC1CCN(c2cc(N3CCC[C@H]3C(=O)NCCc3ccc(C(F)(F)F)cc3)nc(C(F)(F)F)n2)CC1)NCCS(=O)(=O)O [Compound 86, (S)-2-(3-(2-(1-(2-(trifluoromethyl)-6-(2-((4-(trifluoromethyl)phenethyl)-carbamoyl)pyrrolidin-1-yl)pyrimidin-4-yl)piperidin-4-yl)ethyl)ureido)-ethanesulfonic acid]	< 0.1	< 0.1
N#Cc1ccc(CCNC(=O)[C@@H]2CCCN2c2cc(N3CCC(CCCC(=O)NCP(=O)(O)O)CC3)nc(C(F)(F)F)n2)cc1 [Compound 64, (S)-((4-(1-(6-(2-((4-cyanophenethyl)carbamoyl)pyrrolidin-1-yl)-2-(trifluoromethyl)pyrimidin-4-yl)piperidin-4-yl)butanamido)methyl)-phosphonic acid]	< 0.1	0.1 to 0.999
CS(=O)(=O)NCCNC(=O)CCCC1CCN(c2cc(N3CCC[C@H]3C(=O)NCCc3ccc(C(F)(F)F)cc3)nc(C(F)(F)F)n2)CC1 [Compound 91, (S)-1-(6-(4-(4-((2-(methylsulfonamido)ethyl)amino)-4-oxobutyl)piperidin-1-yl)-2-(trifluoromethyl)pyrimidin-4-yl)-N-(4-(trifluoromethyl)phenethyl)pyrrolidine-2-carboxamide]	< 0.1	< 0.1
N#Cc1ccc(CCNC(=O)[C@@H]2CCCN2c2cc(N3CCC(CCCC(=O)NCS(=O)(=O)O)CC3)nc(C(F)(F)F)n2)cc1 [Compound 66, (S)-(4-(1-(6-(2-((4-cyanophenethyl)carbamoyl)pyrrolidin-1-yl)-2-(trifluoromethyl)pyrimidin-4-yl)piperidin-4-yl)butanamido)-methanesulfonic acid]	< 0.1	< 0.1
CS(=O)(=O)NCCNC(=O)CCCC1CCN(c2cc(N3CCC[C@H]3C(=O)NCCc3ccc(C#N)cc3)nc(C(F)(F)F)n2)CC1 [Compound 93]	< 0.1	< 0.1
N#Cc1ccc(CCNC(=O)[C@@H]2CCCN2c2cc(N3CCC(CCCC(=O)N[C@@H](CCC(=O)O)C(=O)O)CC3)nc(C(F)(F)F)n2)cc1 [Compound 76, (S)-2-(4-(1-(6-((S)-2-((4-cyanophenethyl)carbamoyl)pyrrolidin-1-yl)-2-(trifluoromethyl)pyrimidin-4-yl)piperidin-4-yl)butanamido)-pentanedioic acid]	< 0.1	0.1 to 0.999
N#Cc1ccc(CCNC(=O)[C@@H]2CCCN2c2cc(N3CCC(CCNC(=O)NCCS(N)(=O)=O)CC3)nc(C(F)(F)F)n2)cc1 [Compound 80, (S)-N-(4-cyanophenethyl)-1-(6-(4-(2-(3-(2-sulfamoylethyl)ureido)-ethyl)piperidin-1-yl)-2-(trifluoromethyl)pyrimidin-4-yl)pyrrolidine-2-carboxamide]	< 0.1	0.1 to 0.999
N#Cc1ccc(CCNC(=O)[C@@H]2CCCN2c2cc(N3CCC(CCNC(=O)NCCC(=O)O)CC3)nc(C(F)(F)F)n2)cc1 [Compound 81, (S)-3-(3-(2-(1-(6-(2-((4-cyanophenethyl)carbamoyl)pyrrolidin-1-yl)-2-(trifluoromethyl)pyrimidin-4-yl)piperidin-4-yl)ethyl)ureido)-propanoic acid]	< 0.1	0.1 to 0.999
N#Cc1ccc(CCNC(=O)[C@@H]2CCCN2c2cc(N3CCC(CCCC(=O)N[C@@H](CCCNC(=N)N)C(=O)O)CC3)nc(C(F)(F)F)n2)cc1 [Compound 72, (S)-2-(4-(1-(6-((S)-2-((4-cyanophenethyl)carbamoyl)pyrrolidin-1-yl)-2-(trifluoromethyl)pyrimidin-4-yl)piperidin-4-yl)butanamido)-5-guanidinopentanoic acid]	< 0.1	0.1 to 0.999
N#Cc1ccc(CCNC(=O)[C@@H]2CCCN2c2cc(N3CCC(CCCC(=O)NCC(N)=O)CC3)nc(C(F)(F)F)n2)cc1 [Compound 68, (S)-1-(6-(4-(4-((2-amino-2-oxoethyl)amino)-4-oxobutyl)piperidin-1-yl)-2-(trifluoromethyl)pyrimidin-4-yl)-N-(4-cyanophenethyl)pyrrolidine-2-carboxamide]	< 0.1	0.1 to 0.999
N#Cc1ccc(CCNC(=O)[C@@H]2CCCN2c2cc(N3CCC(CCNC(=O)NCCS(=O)(=O)O)CC3)nc(C(F)(F)F)n2)cc1 [Compound 78, (S)-2-(3-(2-(1-(6-(2-((4-cyanophenethyl)carbamoyl)pyrrolidin-1-yl)-2-(trifluoromethyl)pyrimidin-4-yl)piperidin-4-yl)ethyl)ureido)ethanesulfonic acid]	< 0.1	< 0.1
N#Cc1ccc(CCNC(=O)[C@@H]2CCCN2c2cc(N3CCC(CO)CC3)nc(C(F)(F)F)n2)cc1 [Compound 1, (S)—N-(4-cyanophenethyl)-1-(6-(4-(hydroxymethyl)piperidin-1-yl)-2-(trifluoromethyl)pyrimidin-4-yl)pyrrolidine-2-carboxamide]	< 0.1	0.1 to 0.999
N#Cc1ccc(CCNC(=O)[C@@H]2CCCN2c2cc(N3CCC(CCCC(=O)NCCNc4cc(C(=O)O)ncn4)CC3)nc(C(F)(F)F)n2)cc1 [Compound 101, (S)-6-((2-(4-(1-(6-(2-((4-cyanophenethyl)carbamoyl)pyrrolidin-1-yl)-2-(trifluoromethyl)pyrimidin-4-yl)piperidin-4-yl)butanamido)ethyl)amino)-pyrimidine-4-carboxylic acid]	< 0.1	< 0.1
O=C(CCCC1CCN(c2cc(N3CCC[C@H]3C(=O)NCCc3ccc(C(F)(F)F)cc3)nc(C(F)(F)F)n2)CC1)NCCNc1ncnc2c1ncn2[C@@H]1O[C@H](CO)C(O)C1O (stereo partly drawn) [Compound 96, (2S)-1-(6-(4-(4-((2-((9-((2R,5R)-3,4-dihydroxy-5-(hydroxymethyl)-tetrahydrofuran-2-yl)-9H-purin-6-yl)amino)ethyl)amino)-4-oxobutyl)piperidin-1-yl)-2-(trifluoromethyl)-pyrimidin-4-yl)-N-(4-(trifluoromethyl)-phenethyl)-pyrrolidine-2-carboxamide]	< 0.1	< 0.1
